Columns and labels:
hTERT = assay: Secreted alkaline phosphatase (SEAP) assay, PhTERT-SEAP (H1299); assay type: cell-based; settings: Homo sapiens, 24 hours; for activity at 1 µM: NCI-H1299, Conc. 1 μM, read-out: Relative SEAP activity (%); for activity at 10 µM: NCI-H1299, Conc. 10 μM; for activity at 10 µM / activity at 100 µM: read-out: Relative SEAP activity (%) (converted); for activity at 100 µM: NCI-H1299, Conc. 100 μM
Experimental: H1299 were grown in RPMI 1640 media supplemented with 10% fetal bovine serum, 100 units/mL penicillin and […] streptomycin in a humidified atmosphere with 5% CO2 at 37° C. Culture media were changed every three days. To establish stable cell lines that the expression of hTERT could be monitored by a reporter system, a about 3.3 kbp DNA fragment ranging from −3338 to +1 bp of the hTERT gene (hTERT promoter, PhTERT) was subcloned upstream to a secreted alkaline phosphatase gene (SEAP) and transfected into H1299 by electroporation. The stable clones were selected using G418. The stable clones derived from H1299 were cultured using conditions that are similar to their parental cells.
Secreted alkaline phosphatase was used as the reporter system to monitor the transcriptional activity of hTERT. Here, about 10^4 cells each were grown in 96-well plates and incubated at 37° C. for 24 hours and changed with fresh media. Varying amounts of drugs were added and cells were incubated for another 24 hours. Culture media were collected and heated at 65° C. for 10 min to inactivate heat-labile phosphatases. An equal amount of SEAP buffer (2 M diethanolamine, 1 mM MgCl2, and 20 mM L-homoarginine) was added to the media and p-nitrophenyl phosphate was added to a final concentration of 12 mM. Absorptions at 405 nm were taken, and the rate of absorption increase is determined (the increasing rate of absorbance at 405 nm was used to represent the activity of SEAP).

H1299 = assay: MTT assay, PhTERT-SEAP (H1299); assay type: cell-based, human; settings: H1299; for cell toxicity activity: low concentration (1 μM)
Experimental: (§1) Further, cells were subjected to MTT assay to compare the relative toxicity or effect of each compound on cell proliferation and activity.
(§2) The above-described cells are cultured in a 96-well plate, to which was added with 25 μl MTT solution, and cultured in a 37° C. carbon dioxide incubator for 4 hours. Then, 100 μl Lysis buffer is added and incubated in a 37° C. carbon dioxide incubator overnight. An ELISA reader (Bio-Rad Model 450) is used to read optical density (O.D.) at 550 nm.

[1] = MTT assay, PhTERT-SEAP (H1299); assay type: cell-based, human; settings: human, H1299 cells carrying the PhTERT-SEAP reporter, PhTERT-SEAP (H1299); for viability at 1 μM: Conc. 1 μM, read-out: Relative MTT viability (%); for viability at 10 μM: Conc. 10 μM
Experimental: as §1, §2

[2] = read-out: Relative MTT viability (%) (converted)

Row | Compound | activity at 1 µM (hTERT) [%] | activity at 10 µM (hTERT) [%] | activity at 100 µM (hTERT) [%] | melting point [°C] | cell toxicity / inhibitory activity compared with mitoxantrone and doxorubicin (H1299; SEAP and MTT analysis) | viability at 1 μM [1] [%] | cell toxicity activity (H1299) | viability at 10 μM [1, 2] [%] | cell toxicity (H1299; 1 μM, 10 μM, and 100 μM) | viability at 100 μM ([1]; Conc. 100 μM, read-out: Relative MTT viability (%) (converted)) | inhibitory activity among compounds CC-35 to CC-50 (H1299; SEAP and MTT analysis)
1 | O=C(CCl)Nc1ccc2c(c1NC(=O)CCl)C(=O)c1ccccc1C2=O [CC-01, 1,2-bis-(chloroacetamido)-anthraquinone] | 15.9 ± 1.06 | 13.7 | 13.7 | 254 to 255 | higher cell toxicity activity than mitoxantrone and doxorubicin | 8.1 ± 3.87 | – | – | – | – | –
2 | O=C(CCl)Nc1ccc2c(c1NC(=O)c1ccc(F)cc1)C(=O)c1ccccc1C2=O [CC-15, 1-(4-fluorobenzamido)-2-(chloroacetamido)-anthraquinone] | 11.9 ± 9.77 | 2.58 | 0.52 | 184 to 185 | inhibitory activity even better than mitoxantrone and doxorubicin | 10.9 ± 2.92 | very strong cell toxicity activity | 4.2 | – | – | –
3 | CC(Cl)C(=O)Nc1c(NC(=O)CCl)ccc2c1C(=O)c1ccccc1C2=O (stereo not shown) [CC-06, 1-[(2-chloropropanyl)amido]-2-(chloroacetamido)-anthraquinone] | 12.1 ± 0.44 | 1.04 | 2.38 | 175 to 176 | higher cell toxicity activity than mitoxantrone and doxorubicin | 9.01 ± 1.66 | – | – | – | – | –
4 | O=C(CN1CCN(c2ccccc2)CC1)Nc1ccc2c(c1NC(=O)c1ccccc1)C(=O)c1ccccc1C2=O [CC-33, 1-(benzamido)-2-[2-(4-phenylpiperazino)acetylamino]-anthraquinone] | 85.9 ± 8.01 | 97.9 ± 4.82 | 89.6 ± 3.37 | 225 to 226 | – | 86.3 ± 2.6 | – | 110 ± 8.53 | no significant cell toxicity | 88 ± 6.32 | –
5 | Cc1ccc(C(=O)Nc2c(NC(=O)CN3CCN(CCO)CC3)ccc3c2C(=O)c2ccccc2C3=O)cc1 [CC-44, 1-(4-methylbenzamido)-2-[2-(4-(2-hydroxyethyl)piperazino]acetylamino]-anthraquinone] | 77 ± 9.13 | 8.09 | -1.24 | 210 to 211 | – | 71.5 ± 5.12 | – | 44.8 | – | – | higher inhibitory activity
6 | O=C(CCl)Nc1ccc2c(c1NC(=O)c1cccc(F)c1)C(=O)c1ccccc1C2=O [CC-14, 1-(3-fluorobenzamido)-2-(chloroacetamido)-anthraquinone] | 26.9 ± 11.6 | 1.77 | 0.97 | 197 to 198 | inhibitory activity even better than mitoxantrone and doxorubicin | 18.3 ± 13.5 | very strong cell toxicity activity | 8.06 | – | – | –
